{
  "source": "paper PMC10838953",
  "key": {"CSNK1D": {"target": "CSNK1D (Homo sapiens, UniProt P48730)", "sequence (P48730 whole entry)": "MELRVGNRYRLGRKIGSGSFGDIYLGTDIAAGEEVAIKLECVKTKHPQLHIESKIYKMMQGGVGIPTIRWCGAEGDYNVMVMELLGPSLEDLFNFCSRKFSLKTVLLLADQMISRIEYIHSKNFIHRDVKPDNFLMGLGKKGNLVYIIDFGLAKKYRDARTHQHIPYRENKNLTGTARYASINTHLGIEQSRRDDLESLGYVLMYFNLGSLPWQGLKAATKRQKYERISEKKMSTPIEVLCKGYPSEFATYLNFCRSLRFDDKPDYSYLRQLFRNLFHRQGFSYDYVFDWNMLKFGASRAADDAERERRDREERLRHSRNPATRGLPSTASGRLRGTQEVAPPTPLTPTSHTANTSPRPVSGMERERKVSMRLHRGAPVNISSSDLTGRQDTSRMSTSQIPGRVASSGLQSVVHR", "assay": "biochemical", "details": "read-out: %Ctrl @ 2000nM"}, "DRAK1": {"target": "DRAK1 (Homo sapiens, UniProt Q9UEE5)", "assay": "biochemical", "details": "read-out: %Ctrl @ 2000nM"}, "RIPK2": {"target": "RIPK2 (Homo sapiens, UniProt O43353)", "assay": "biochemical", "details": "read-out: %Ctrl @ 2000nM"}, "PCTK3": {"target": "PCTK3 (Homo sapiens, UniProt Q07002)", "sequence (Q07002 whole entry)": "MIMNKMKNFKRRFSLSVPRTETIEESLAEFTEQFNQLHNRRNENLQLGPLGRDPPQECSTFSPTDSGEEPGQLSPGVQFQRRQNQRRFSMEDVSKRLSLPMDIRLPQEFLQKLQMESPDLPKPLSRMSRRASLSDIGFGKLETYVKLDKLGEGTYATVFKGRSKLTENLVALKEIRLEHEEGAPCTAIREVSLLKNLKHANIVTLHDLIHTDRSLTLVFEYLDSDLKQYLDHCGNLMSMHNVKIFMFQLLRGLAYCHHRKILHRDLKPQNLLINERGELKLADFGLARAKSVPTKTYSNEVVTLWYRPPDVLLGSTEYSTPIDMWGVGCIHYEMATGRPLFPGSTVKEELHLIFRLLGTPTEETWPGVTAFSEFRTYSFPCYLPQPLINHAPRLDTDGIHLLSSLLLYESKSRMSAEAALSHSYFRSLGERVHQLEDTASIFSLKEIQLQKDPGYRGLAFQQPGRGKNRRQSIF", "assay": "biochemical", "details": "read-out: %Ctrl @ 2000nM"}, "BIKE": {"target": "BIKE (Homo sapiens, UniProt Q9NSY1)", "assay": "biochemical", "details": "read-out: %Ctrl @ 2000nM"}, "MYO3A": {"target": "MYO3A (Homo sapiens, UniProt Q8NEV4)", "assay": "biochemical", "details": "read-out: %Ctrl @ 2000nM"}, "YANK1": {"target": "YANK1 (Homo sapiens, UniProt Q8WU08)", "assay": "biochemical", "details": "read-out: %Ctrl @ 2000nM"}, "PAK4": {"target": "PAK4 (Homo sapiens, UniProt O96013)", "assay": "biochemical", "details": "read-out: %Ctrl @ 2000nM"}, "VEGFR2": {"target": "VEGFR2 (Homo sapiens, UniProt P35968)", "assay": "biochemical", "details": "read-out: %Ctrl @ 2000nM"}, "MAP4K3": {"target": "MAP4K3 (Homo sapiens, UniProt Q8IVH8)", "sequence (Q8IVH8 whole entry)": "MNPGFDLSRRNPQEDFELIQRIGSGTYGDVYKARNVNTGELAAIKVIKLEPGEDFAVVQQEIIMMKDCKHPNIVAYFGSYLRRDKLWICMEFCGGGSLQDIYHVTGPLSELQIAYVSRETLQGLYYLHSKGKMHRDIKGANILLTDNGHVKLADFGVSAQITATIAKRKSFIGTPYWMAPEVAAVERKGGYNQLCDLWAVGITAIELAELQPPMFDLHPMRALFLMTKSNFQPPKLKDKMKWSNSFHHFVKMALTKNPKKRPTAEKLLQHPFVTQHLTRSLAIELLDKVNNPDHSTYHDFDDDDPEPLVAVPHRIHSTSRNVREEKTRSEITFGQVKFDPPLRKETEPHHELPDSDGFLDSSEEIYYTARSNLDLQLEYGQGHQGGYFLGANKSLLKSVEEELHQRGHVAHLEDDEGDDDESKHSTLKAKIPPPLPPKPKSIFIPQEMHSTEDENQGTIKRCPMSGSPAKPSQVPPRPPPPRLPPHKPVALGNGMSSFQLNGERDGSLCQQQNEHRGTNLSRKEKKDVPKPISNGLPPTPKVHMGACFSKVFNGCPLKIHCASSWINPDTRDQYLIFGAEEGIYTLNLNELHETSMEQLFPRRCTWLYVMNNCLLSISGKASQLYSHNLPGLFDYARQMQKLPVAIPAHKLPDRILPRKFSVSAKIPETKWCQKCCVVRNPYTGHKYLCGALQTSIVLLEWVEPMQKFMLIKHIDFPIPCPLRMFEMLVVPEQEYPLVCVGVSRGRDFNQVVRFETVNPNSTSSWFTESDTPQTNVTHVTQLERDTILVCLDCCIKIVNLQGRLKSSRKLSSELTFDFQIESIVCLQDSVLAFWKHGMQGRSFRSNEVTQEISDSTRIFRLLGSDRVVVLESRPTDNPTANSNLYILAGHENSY", "assay": "biochemical", "details": "read-out: %Ctrl @ 2000nM"}, "DRAK2": {"target": "DRAK2 (Homo sapiens, UniProt O94768)", "sequence (O94768 whole entry)": "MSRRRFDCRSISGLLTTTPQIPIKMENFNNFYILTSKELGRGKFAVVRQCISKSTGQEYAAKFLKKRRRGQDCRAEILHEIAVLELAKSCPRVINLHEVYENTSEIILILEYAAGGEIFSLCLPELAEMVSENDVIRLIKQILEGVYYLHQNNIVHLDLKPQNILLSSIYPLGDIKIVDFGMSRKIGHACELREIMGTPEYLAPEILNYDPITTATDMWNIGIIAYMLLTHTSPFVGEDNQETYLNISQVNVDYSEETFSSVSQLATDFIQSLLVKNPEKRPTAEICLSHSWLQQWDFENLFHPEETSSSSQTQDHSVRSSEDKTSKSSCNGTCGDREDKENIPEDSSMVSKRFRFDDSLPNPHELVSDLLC", "assay": "biochemical", "details": "read-out: %Ctrl @ 2000nM"}, "AAK1": {"target": "AAK1 (Homo sapiens, UniProt Q2M2I8)", "assay": "biochemical", "details": "read-out: %Ctrl @ 2000nM"}, "MAP3K2": {"target": "MAP3K2 (Homo sapiens, UniProt Q9Y2U5)", "assay": "biochemical", "details": "read-out: %Ctrl @ 2000nM"}, "PFTAIRE2": {"target": "PFTAIRE2 (Homo sapiens, UniProt Q96Q40)", "assay": "biochemical", "details": "read-out: %Ctrl @ 2000nM"}, "NEK6": {"target": "NEK6 (Homo sapiens, UniProt Q9HC98)", "assay": "biochemical", "details": "read-out: %Ctrl @ 2000nM"}, "ASK2": {"target": "ASK2 (Homo sapiens, UniProt O95382)", "assay": "biochemical", "details": "read-out: %Ctrl @ 2000nM"}, "PIP5K1A": {"target": "PIP5K1A (Homo sapiens, UniProt Q99755)", "assay": "biochemical", "details": "read-out: %Ctrl @ 2000nM"}, "CAMKK2": {"target": "CAMKK2 (Homo sapiens, UniProt Q96RR4)", "assay": "biochemical", "details": "read-out: %Ctrl @ 2000nM"}, "CTK": {"target": "CTK (Homo sapiens, UniProt P42679)", "assay": "biochemical", "details": "read-out: %Ctrl @ 2000nM"}, "AKT (S129)": {"system": "AKT (S129)", "details": "HEK293 cells; 48 h"}, "HIPK4": {"target": "HIPK4 (Homo sapiens, UniProt Q8NE63)", "assay": "biochemical", "details": "read-out: %Ctrl @ 2000nM"}, "EPHA2": {"target": "EPHA2 (Homo sapiens, UniProt P29317)", "sequence (P29317 24-976)": "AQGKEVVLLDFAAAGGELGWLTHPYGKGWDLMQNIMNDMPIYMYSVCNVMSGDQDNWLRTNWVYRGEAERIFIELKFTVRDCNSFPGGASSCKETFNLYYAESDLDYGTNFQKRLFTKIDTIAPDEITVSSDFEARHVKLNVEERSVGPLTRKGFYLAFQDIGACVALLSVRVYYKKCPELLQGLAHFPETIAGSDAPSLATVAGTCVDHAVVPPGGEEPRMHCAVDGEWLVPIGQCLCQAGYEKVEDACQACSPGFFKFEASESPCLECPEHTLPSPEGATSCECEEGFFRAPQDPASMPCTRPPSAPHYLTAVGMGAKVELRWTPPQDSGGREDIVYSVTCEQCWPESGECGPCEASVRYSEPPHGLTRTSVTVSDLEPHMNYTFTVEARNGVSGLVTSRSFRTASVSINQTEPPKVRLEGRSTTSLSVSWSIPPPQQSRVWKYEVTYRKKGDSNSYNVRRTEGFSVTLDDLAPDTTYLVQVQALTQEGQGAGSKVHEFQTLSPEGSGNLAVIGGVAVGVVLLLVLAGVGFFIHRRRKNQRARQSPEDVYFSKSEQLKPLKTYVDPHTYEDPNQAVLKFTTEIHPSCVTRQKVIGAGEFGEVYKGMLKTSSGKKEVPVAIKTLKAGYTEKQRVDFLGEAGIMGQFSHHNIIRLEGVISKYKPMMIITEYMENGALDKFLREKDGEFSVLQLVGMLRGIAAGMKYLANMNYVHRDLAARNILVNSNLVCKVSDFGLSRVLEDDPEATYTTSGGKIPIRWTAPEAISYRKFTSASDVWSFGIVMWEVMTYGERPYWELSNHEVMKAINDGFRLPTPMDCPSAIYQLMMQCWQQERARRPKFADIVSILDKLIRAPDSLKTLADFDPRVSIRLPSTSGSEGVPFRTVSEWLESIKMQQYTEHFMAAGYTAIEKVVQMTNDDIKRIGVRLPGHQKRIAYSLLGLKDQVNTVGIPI", "assay": "biochemical", "details": "read-out: %Ctrl @ 2000nM"}, "WEE1": {"target": "WEE1 (Homo sapiens, UniProt P30291)", "assay": "biochemical", "details": "read-out: %Ctrl @ 2000nM"}, "JNK3": {"target": "JNK3 (Homo sapiens, UniProt P53779)", "assay": "biochemical", "details": "read-out: %Ctrl @ 2000nM"}, "YSK1": {"target": "YSK1 (Homo sapiens, UniProt O00506)", "assay": "biochemical", "details": "read-out: %Ctrl @ 2000nM"}, "CDC2L1": {"target": "CDC2L1 (Homo sapiens, UniProt P21127)", "assay": "biochemical", "details": "read-out: %Ctrl @ 2000nM"}, "CAMK1": {"target": "CAMK1 (Homo sapiens, UniProt Q14012)", "sequence (Q14012 whole entry)": "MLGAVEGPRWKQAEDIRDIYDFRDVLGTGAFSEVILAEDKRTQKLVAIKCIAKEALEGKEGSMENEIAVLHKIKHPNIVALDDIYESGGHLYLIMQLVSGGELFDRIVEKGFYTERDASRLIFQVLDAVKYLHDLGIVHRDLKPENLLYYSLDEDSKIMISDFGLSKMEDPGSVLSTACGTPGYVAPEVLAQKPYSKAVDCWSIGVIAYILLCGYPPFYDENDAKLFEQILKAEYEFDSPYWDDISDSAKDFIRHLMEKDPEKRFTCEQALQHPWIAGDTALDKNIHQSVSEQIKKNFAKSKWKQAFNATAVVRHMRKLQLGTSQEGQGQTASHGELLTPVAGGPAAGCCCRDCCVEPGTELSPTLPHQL", "assay": "biochemical", "details": "read-out: %Ctrl @ 2000nM"}, "PLK4": {"target": "PLK4 (Homo sapiens, UniProt O00444)", "assay": "biochemical", "details": "read-out: %Ctrl @ 2000nM"}, "DAPK1": {"target": "DAPK1 (Homo sapiens, UniProt P53355)", "assay": "biochemical", "details": "read-out: %Ctrl @ 2000nM"}, "CSNK1G3": {"target": "CSNK1G3 (Homo sapiens, UniProt Q9Y6M4)", "assay": "biochemical", "details": "read-out: %Ctrl @ 2000nM"}, "KIT(V559D,V654A)": {"target": "KIT(V559D,V654A) (Homo sapiens, UniProt P10721, V559D/V654A)", "assay": "biochemical", "details": "read-out: %Ctrl @ 2000nM"}, "KIT": {"target": "KIT (Homo sapiens, UniProt P10721)", "assay": "biochemical", "details": "read-out: %Ctrl @ 2000nM"}, "MLK2": {"target": "MLK2 (Homo sapiens, UniProt Q02779)", "assay": "biochemical", "details": "read-out: %Ctrl @ 2000nM"}, "CSF1R": {"target": "CSF1R (Homo sapiens, UniProt P07333)", "sequence (P07333 20-972)": "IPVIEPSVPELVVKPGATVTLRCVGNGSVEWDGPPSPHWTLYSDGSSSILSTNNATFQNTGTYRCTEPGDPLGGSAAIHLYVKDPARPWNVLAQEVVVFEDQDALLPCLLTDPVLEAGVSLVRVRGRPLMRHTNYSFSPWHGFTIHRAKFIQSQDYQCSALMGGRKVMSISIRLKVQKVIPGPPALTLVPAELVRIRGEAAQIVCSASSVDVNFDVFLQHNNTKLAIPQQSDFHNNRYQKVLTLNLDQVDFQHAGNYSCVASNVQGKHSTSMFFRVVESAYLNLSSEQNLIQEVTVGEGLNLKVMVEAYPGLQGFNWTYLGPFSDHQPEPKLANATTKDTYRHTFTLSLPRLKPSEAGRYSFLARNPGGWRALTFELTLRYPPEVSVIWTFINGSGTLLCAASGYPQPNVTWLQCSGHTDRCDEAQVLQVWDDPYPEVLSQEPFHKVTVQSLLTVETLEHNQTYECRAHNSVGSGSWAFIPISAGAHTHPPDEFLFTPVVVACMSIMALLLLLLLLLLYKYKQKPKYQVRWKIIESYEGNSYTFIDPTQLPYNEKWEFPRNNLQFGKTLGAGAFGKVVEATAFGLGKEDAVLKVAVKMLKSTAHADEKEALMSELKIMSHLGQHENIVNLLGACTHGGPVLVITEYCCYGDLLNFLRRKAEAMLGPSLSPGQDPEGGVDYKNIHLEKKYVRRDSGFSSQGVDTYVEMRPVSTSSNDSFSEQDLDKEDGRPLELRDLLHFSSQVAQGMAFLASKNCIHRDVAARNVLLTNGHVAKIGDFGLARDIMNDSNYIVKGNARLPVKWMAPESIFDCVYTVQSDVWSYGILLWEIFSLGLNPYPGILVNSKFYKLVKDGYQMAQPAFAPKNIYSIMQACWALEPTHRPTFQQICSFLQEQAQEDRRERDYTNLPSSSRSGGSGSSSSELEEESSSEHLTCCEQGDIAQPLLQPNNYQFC", "assay": "biochemical", "details": "read-out: %Ctrl @ 2000nM"}, "primary hepatocytes": {"system": "primary hepatocytes", "assay": "cells", "details": "Hepatocyte, read-out: IC50 cell viability"}, "CDK4": {"target": "CDK4 (Homo sapiens, UniProt P11802)", "assay": "biochemical", "details": "read-out: %Ctrl @ 2000nM"}, "FLT4": {"target": "FLT4 (Homo sapiens, UniProt P35916)", "assay": "biochemical", "details": "read-out: %Ctrl @ 2000nM"}, "ULK3": {"target": "ULK3 (Homo sapiens, UniProt Q6PHR2)", "assay": "biochemical", "details": "read-out: %Ctrl @ 2000nM"}, "MAP3K4": {"target": "MAP3K4 (Homo sapiens, UniProt Q9Y6R4)", "assay": "biochemical", "details": "read-out: %Ctrl @ 2000nM"}, "NEK3": {"target": "NEK3 (Homo sapiens, UniProt P51956)", "assay": "biochemical", "details": "read-out: %Ctrl @ 2000nM"}, "TGFBR2": {"target": "TGFBR2 (Homo sapiens, UniProt P37173)", "sequence (P37173 23-567)": "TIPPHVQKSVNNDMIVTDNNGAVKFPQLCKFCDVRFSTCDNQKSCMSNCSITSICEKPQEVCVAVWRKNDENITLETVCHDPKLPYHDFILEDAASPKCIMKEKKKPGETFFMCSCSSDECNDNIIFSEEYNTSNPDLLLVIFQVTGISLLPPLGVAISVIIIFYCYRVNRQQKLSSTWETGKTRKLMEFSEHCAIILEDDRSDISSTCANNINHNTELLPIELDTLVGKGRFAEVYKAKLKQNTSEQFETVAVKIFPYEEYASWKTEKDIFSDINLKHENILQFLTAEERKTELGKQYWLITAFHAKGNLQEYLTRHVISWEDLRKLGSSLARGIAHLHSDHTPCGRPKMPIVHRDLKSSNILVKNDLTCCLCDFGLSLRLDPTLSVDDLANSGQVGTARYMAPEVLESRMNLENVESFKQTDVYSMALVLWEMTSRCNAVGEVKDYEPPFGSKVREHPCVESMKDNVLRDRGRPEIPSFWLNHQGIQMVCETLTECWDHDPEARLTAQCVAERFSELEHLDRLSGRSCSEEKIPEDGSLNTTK", "assay": "biochemical", "details": "read-out: %Ctrl @ 2000nM"}, "p38-alpha": {"target": "p38-alpha (Homo sapiens, UniProt Q16539)", "assay": "biochemical", "details": "read-out: %Ctrl @ 2000nM"}},
  "data": [
    {"smiles": "CC(C)COC(=O)c1[nH]c2ccc(F)cc2c1-c1cn(CC2CCN(CCNS(=O)(=O)c3ccc(CC(C)C)cc3)CC2)nn1", "note": "[AB668, isobutyl 5-fluoro-3-(1-((1-(2-((4-isobutylphenyl)sulfonamido)ethyl)piperidin-4-yl)methyl)-1H-1,2,3-triazol-4-yl)-1H-indole-2-carboxylate]", "values": [
      {"measurement": "remaining activity at 2 µM", "setting": "CSNK1D", "result": 89, "unit": "%"},
      {"measurement": "remaining activity at 2 µM", "setting": "DRAK1", "result": 100, "unit": "%"},
      {"measurement": "remaining activity at 2 µM", "setting": "RIPK2", "result": 83, "unit": "%"},
      {"measurement": "remaining activity at 2 µM", "setting": "PCTK3", "result": 91, "unit": "%"},
      {"measurement": "remaining activity at 2 µM", "setting": "BIKE", "result": 99, "unit": "%"},
      {"measurement": "remaining activity at 2 µM", "setting": "MYO3A", "result": 96, "unit": "%"},
      {"measurement": "remaining activity at 2 µM", "setting": "YANK1", "result": 78, "unit": "%"},
      {"measurement": "remaining activity at 2 µM", "setting": "PAK4", "result": 95, "unit": "%"},
      {"measurement": "remaining activity at 2 µM", "setting": "VEGFR2", "result": 98, "unit": "%"},
      {"measurement": "remaining activity at 2 µM", "setting": "MAP4K3", "result": 82, "unit": "%"},
      {"measurement": "remaining activity at 2 µM", "setting": "DRAK2", "result": 100, "unit": "%"},
      {"measurement": "remaining activity at 2 µM", "setting": "AAK1", "result": 80, "unit": "%"},
      {"measurement": "remaining activity at 2 µM", "setting": "MAP3K2", "result": 93, "unit": "%"},
      {"measurement": "remaining activity at 2 µM", "setting": "PFTAIRE2", "result": 88, "unit": "%"},
      {"measurement": "remaining activity at 2 µM", "setting": "NEK6", "result": 87, "unit": "%"},
      {"measurement": "remaining activity at 2 µM", "setting": "ASK2", "result": 75, "unit": "%"},
      {"measurement": "remaining activity at 2 µM", "setting": "PIP5K1A", "result": 85, "unit": "%"},
      {"measurement": "remaining activity at 2 µM", "setting": "CAMKK2", "result": 81, "unit": "%"},
      {"measurement": "remaining activity at 2 µM", "setting": "CTK", "result": 82, "unit": "%"},
      {"measurement": "AKT phosphorylation", "setting": "AKT (S129)", "result": "weakly affected"},
      {"measurement": "remaining activity at 2 µM", "setting": "HIPK4", "result": 87, "unit": "%"},
      {"measurement": "remaining activity at 2 µM", "setting": "EPHA2", "result": 92, "unit": "%"},
      {"measurement": "remaining activity at 2 µM", "setting": "WEE1", "result": 96, "unit": "%"},
      {"measurement": "remaining activity at 2 µM", "setting": "JNK3", "result": 92, "unit": "%"},
      {"measurement": "remaining activity at 2 µM", "setting": "YSK1", "result": 82, "unit": "%"},
      {"measurement": "remaining activity at 2 µM", "setting": "CDC2L1", "result": 90, "unit": "%"},
      {"measurement": "remaining activity at 2 µM", "setting": "CAMK1", "result": 77, "unit": "%"},
      {"measurement": "remaining activity at 2 µM", "setting": "PLK4", "result": 94, "unit": "%"},
      {"measurement": "remaining activity at 2 µM", "setting": "DAPK1", "result": 100, "unit": "%"},
      {"measurement": "remaining activity at 2 µM", "setting": "CSNK1G3", "result": 67, "unit": "%"},
      {"measurement": "remaining activity at 2 µM", "setting": "KIT(V559D,V654A)", "result": 100, "unit": "%"},
      {"measurement": "remaining activity at 2 µM", "setting": "KIT", "result": 95, "unit": "%"},
      {"measurement": "remaining activity at 2 µM", "setting": "MLK2", "result": 73, "unit": "%"},
      {"measurement": "remaining activity at 2 µM", "setting": "CSF1R", "result": 100, "unit": "%"},
      {"measurement": "IC50", "setting": "primary hepatocytes", "result": "> 100", "unit": "µM"},
      {"measurement": "remaining activity at 2 µM", "setting": "CDK4", "result": 100, "unit": "%"},
      {"measurement": "CK2 inhibition 8 h after inhibitor removal", "setting": "CK2 in 786-O cells", "result": "persisted"},
      {"measurement": "remaining activity at 2 µM", "setting": "FLT4", "result": 98, "unit": "%"},
      {"measurement": "remaining activity at 2 µM", "setting": "ULK3", "result": 82, "unit": "%"},
      {"measurement": "remaining activity at 2 µM", "setting": "MAP3K4", "result": 90, "unit": "%"},
      {"measurement": "%Ctrl @ 2000nM", "setting": "FLT3(ITD)", "result": 93, "unit": "%"},
      {"measurement": "remaining activity at 2 µM", "setting": "NEK3", "result": 71, "unit": "%"},
      {"measurement": "remaining activity at 2 µM", "setting": "TGFBR2", "result": 90, "unit": "%"},
      {"measurement": "remaining activity at 2 µM", "setting": "p38-alpha", "result": 87, "unit": "%"}
    ]}
  ]
}
